Active and inactive are the calls of the source. The rule behind the calls is not given here.
Experiments:
[1] = Prodrug conversion in PBS at pH 7.4 assessed as Escherichia coli nitroreductase mediated drug degradation by measuring increase in maximum absorption at 522nm at 5 uM in presence of NADH as cofactor by UV-Vis spectroscopic analysis; assay type: ADME; conditions: isolated protein, pH 7.4, 5 µM
[2] = Prodrug conversion in PBS at 7.4 assessed as Escherichia coli nitroreductase mediated drug degradation by measuring increase in fluorescence emission at 545nm at 10 uM in presence of NADH as cofactor by fluorescence spectroscopic analysis; assay type: ADME; conditions: isolated protein, pH 7.4, 10 µM
[3] = Prodrug conversion in PBS at 7.4 assessed as Escherichia coli nitroreductase mediated drug degradation by measuring norfloxacin metabolite formation at 10 uM incubated for 30 mins by HRMS analysis; assay type: ADME; conditions: isolated protein, pH 7.4, 0.5 h
[4] = Prodrug conversion in PBS at 7.4 assessed as Escherichia coli nitroreductase mediated drug degradation by measuring rhodamine metabolite formation at 10 uM incubated for 30 mins by HRMS analysis; assay type: ADME; conditions: isolated protein, pH 7.4, 0.5 h
[5] = Prodrug conversion in human serum assessed as Fe2+ ion mediated drug degradation by measuring fluorescence production at 10 uM incubated for 30 mins by fluorescence spectroscopic analysis; assay type: ADME, cell-free; conditions: 0.5 h
[6] = Prodrug conversion in human serum assessed as Fe3+ ion mediated drug degradation by measuring fluorescence production at 10 uM incubated for 30 mins by fluorescence spectroscopic analysis; assay type: ADME, cell-free; conditions: 0.5 h
[7] = Prodrug conversion in human serum assessed as Zn2+ ion mediated drug degradation by measuring fluorescence production at 10 uM incubated for 30 mins by fluorescence spectroscopic analysis; assay type: ADME, cell-free; conditions: 0.5 h
[8] = Prodrug conversion in human serum assessed as Cu2+ ion mediated drug degradation by measuring fluorescence production at 10 uM incubated for 30 mins by fluorescence spectroscopic analysis; assay type: ADME, cell-free; conditions: 0.5 h
[9] = Prodrug conversion in human serum assessed as […] mediated drug degradation by measuring fluorescence production at 10 uM incubated for 30 mins by fluorescence spectroscopic analysis; assay type: ADME, cell-free; conditions: 0.5 h
[10] = Prodrug conversion in human serum assessed as NO3- ion mediated drug degradation by measuring fluorescence production at 10 uM incubated for 30 mins by fluorescence spectroscopic analysis; assay type: ADME, cell-free; conditions: 0.5 h
[11] = Prodrug conversion in human serum assessed as ascorbic acid mediated drug degradation by measuring fluorescence production at 10 uM incubated for 30 mins by fluorescence spectroscopic analysis; assay type: ADME, cell-free; conditions: 0.5 h
[12] = Prodrug conversion in human serum assessed as FADH2 mediated drug degradation by measuring fluorescence production at 10 uM incubated for 30 mins by fluorescence spectroscopic analysis; assay type: ADME, cell-free; conditions: 0.5 h
[13] = Prodrug conversion in human serum assessed as GSH mediated drug degradation by measuring fluorescence production at 10 uM incubated for 30 mins by fluorescence spectroscopic analysis; assay type: ADME, cell-free; conditions: 0.5 h
[14] = Prodrug conversion in human serum assessed as H2O2 mediated drug degradation by measuring fluorescence production at 10 uM incubated for 30 mins by fluorescence spectroscopic analysis; assay type: ADME, cell-free; conditions: 0.5 h
[15] = Prodrug conversion in human serum assessed as NO mediated drug degradation by measuring fluorescence production at 10 uM incubated for 30 mins by fluorescence spectroscopic analysis; assay type: ADME, cell-free; conditions: 0.5 h
[16] = Prodrug conversion in human serum assessed as HNO mediated drug degradation by measuring fluorescence production at 10 uM incubated for 30 mins by fluorescence spectroscopic analysis; assay type: ADME, cell-free; conditions: 0.5 h
[17] = Prodrug conversion in human serum assessed as hydroxyl radical mediated drug degradation by measuring fluorescence production at 10 uM incubated for 30 mins by fluorescence spectroscopic analysis; assay type: ADME, cell-free; conditions: 0.5 h
[18] = Prodrug conversion in human serum assessed as pepsin mediated drug degradation by measuring fluorescence production at 10 uM incubated for 30 mins by fluorescence spectroscopic analysis; assay type: ADME, cell-free; conditions: 0.5 h
[19] = Prodrug conversion in human serum assessed as trypsin mediated drug degradation by measuring fluorescence production at 10 uM incubated for 30 mins by fluorescence spectroscopic analysis; assay type: ADME, cell-free; conditions: 0.5 h
[20] = Prodrug conversion in human serum assessed as tyrosinase mediated drug degradation by measuring fluorescence production at 10 uM incubated for 30 mins by fluorescence spectroscopic analysis; assay type: ADME, cell-free; conditions: 0.5 h
[21] = Prodrug conversion in human serum assessed as glutamic acid mediated drug degradation by measuring fluorescence production at 10 uM incubated for 30 mins by fluorescence spectroscopic analysis; assay type: ADME, cell-free; conditions: 0.5 h
[22] = Prodrug conversion in human serum assessed as arginine mediated drug degradation by measuring fluorescence production at 10 uM incubated for 30 mins by fluorescence spectroscopic analysis; assay type: ADME, cell-free; conditions: 0.5 h
[23] = Prodrug conversion in human serum assessed as serine mediated drug degradation by measuring fluorescence production at 10 uM incubated for 30 mins by fluorescence spectroscopic analysis; assay type: ADME, cell-free; conditions: 0.5 h
[24] = Prodrug conversion in human serum assessed as glutathione mediated drug degradation by measuring fluorescence production at 10 uM incubated for 30 mins by fluorescence spectroscopic analysis; assay type: ADME, cell-free; conditions: 0.5 h
[25] = Prodrug conversion in human serum assessed as cysteine mediated drug degradation by measuring fluorescence production at 10 uM incubated for 30 mins by fluorescence spectroscopic analysis; assay type: ADME, cell-free; conditions: 0.5 h
[26] = Prodrug conversion in pH 4 to 8 buffer assessed as Escherichia coli nitroreductase mediated drug degradation by measuring fluorescence intensity at 10 uM incubated for 30 mins by fluorescence spectroscopic analysis; assay type: ADME; conditions: isolated protein, pH 4, 0.5 h
[27] = Prodrug conversion in PBS at pH 7.4 assessed as Escherichia coli nitroreductase mediated drug degradation by measuring change in fluorescence intensity at 545nm at 10 uM incubated for 20 mins by fluorescence spectroscopic analysis; assay type: ADME; conditions: isolated protein, pH 7.4, 20 min
[28] = Prodrug conversion in Escherichia coli assessed as nitroreductase mediated drug degradation by measuring fold increase in fluorescence intensity at 10 uM by fluorescence analysis relative to control; assay type: ADME
[29] = Prodrug conversion in Escherichia coli assessed as nitroreductase mediated drug degradation by measuring increase in fluorescence intensity at 10 uM in presence of dicoumarol by fluorescence analysis; assay type: ADME
[30] = Prodrug conversion in Bacillus subtilis assessed as nitroreductase mediated drug degradation by measuring increase in fluorescence intensity at 10 uM by fluorescence analysis; assay type: ADME
[31] = Prodrug conversion in Bacillus subtilis assessed as nitroreductase mediated drug degradation by measuring increase in fluorescence intensity at 10 uM in presence of dicoumarol by fluorescence analysis; assay type: ADME
Escherichia coli = assay: Antibacterial activity against Escherichia coli assessed as reduction in bacterial cell viability at 250 to 500 uM incubated for 24 hrs by CFU assay; assay type: functional, organism-based; conditions: dose 250-500 µM
Bacillus subtilis = assay: Antibacterial activity against Bacillus subtilis assessed as reduction in bacterial cell viability at 250 to 500 uM incubated for 24 hrs by CFU assay; assay type: functional, organism-based; conditions: dose 250-500 µM
[32] = Prodrug conversion in BALB/c mouse xenografted with human hypoxic A549 cells assessed as rhodamine release by measuring increase in fluorescence intensity in tumor at 2.5 mg/kg,iv and measured after 2.5 hrs by fluorescence imaging analysis; assay type: ADME, organism-based; conditions: in vivo
[33] = Prodrug conversion in BALB/c mouse xenografted with human hypoxic A549 cells assessed as rhodamine release by measuring increase in fluorescence intensity in tumor at 2.5 mg/kg,iv and measured after 29 hrs by fluorescence imaging analysis; assay type: ADME, organism-based; conditions: in vivo
[34] = Prodrug conversion in BALB/c mouse xenografted with human hypoxic A549 cells assessed as rhodamine release by measuring increase in fluorescence intensity in body at 2.5 mg/kg,iv and measured upto 29 hrs by fluorescence imaging analysis; assay type: ADME, organism-based; conditions: in vivo
[35] = Prodrug conversion in BALB/c mouse xenografted with human hypoxic A549 cells assessed as rhodamine release by measuring fold increase in fluorescence intensity in tumor at 2.5 mg/kg,iv and measured after 17 hrs by fluorescence imaging analysis relative to control; assay type: ADME, organism-based; conditions: in vivo
[36] = Biodistribution in tumor of BALB/c mouse xenografted with human hypoxic A549 cells assessed as drug uptake at 2.5 mg/kg,iv and measured after 29 hrs by fluorescence imaging analysis; assay type: ADME, organism-based, Neoplasm; conditions: in vivo
[37] = Biodistribution in intestine of BALB/c mouse xenografted with human hypoxic A549 cells assessed as drug uptake at 2.5 mg/kg,iv and measured after 29 hrs by fluorescence imaging analysis; assay type: ADME, organism-based; conditions: in vivo
[38] = Biodistribution in stomach of BALB/c mouse xenografted with human hypoxic A549 cells assessed as drug uptake at 2.5 mg/kg,iv and measured after 29 hrs by fluorescence imaging analysis; assay type: ADME, organism-based; conditions: in vivo
[39] = Biodistribution in heart of BALB/c mouse xenografted with human hypoxic A549 cells assessed as drug uptake at 2.5 mg/kg,iv and measured after 29 hrs by fluorescence imaging analysis; assay type: ADME, organism-based; conditions: in vivo
[40] = Biodistribution in spleen of BALB/c mouse xenografted with human hypoxic A549 cells assessed as drug uptake at 2.5 mg/kg,iv and measured after 29 hrs by fluorescence imaging analysis; assay type: ADME, organism-based; conditions: in vivo
[41] = Biodistribution in liver of BALB/c mouse xenografted with human hypoxic A549 cells assessed as drug uptake at 2.5 mg/kg,iv and measured after 29 hrs by fluorescence imaging analysis; assay type: ADME, organism-based; conditions: in vivo
[42] = Biodistribution in kidney of BALB/c mouse xenografted with human hypoxic A549 cells assessed as drug uptake at 2.5 mg/kg,iv and measured after 29 hrs by fluorescence imaging analysis; assay type: ADME, organism-based; conditions: in vivo
[43] = Biodistribution in tumor of BALB/c mouse xenografted with human hypoxic A549 cells assessed as fold increase in drug uptake at 2.5 mg/kg,iv and measured after 29 hrs by fluorescence imaging analysis relative to control; assay type: ADME, organism-based, Neoplasm; conditions: in vivo
[44] = Prodrug conversion in tumor of BALB/c mouse xenografted with human hypoxic A549 cells assessed as fold increase in fluorescence intensity at 2.5 mg/kg,iv and measured after 29 hrs by fluorescence imaging analysis relative to control; assay type: ADME, organism-based, Neoplasm; conditions: in vivo
[45] = Prodrug conversion in Escherichia coli assessed as nitroreductase mediated drug degradation by measuring increase in fluorescence intensity at 10 uM by fluorescence analysis relative to control; assay type: ADME

## CCN(CC)c1ccc2c(c1)Oc1cc(OC(=O)OCc3cc(C)cc(COC(=O)c4cn(CC)c5cc(N6CCNCC6)c(F)cc5c4=O)c3OCc3ccc([N+](=O)[O-])cc3)ccc1C21OC(=O)c2ccccc21 (centres undefined)
[1]
  Drug metabolism: Metabolite_Detected
[2]
  Drug metabolism: Metabolite_Detected
[3]
  Drug metabolism: Metabolite_Detected
[4]
  Drug metabolism: Metabolite_Detected
[5]
  Drug metabolism: Metabolite_Notdetected
[6]
  Drug metabolism: Metabolite_Notdetected
[7]
  Drug metabolism: Metabolite_Notdetected
[8]
  Drug metabolism: Metabolite_Notdetected
[9]
  Drug metabolism: Metabolite_Notdetected
[10]
  Drug metabolism: Metabolite_Notdetected
[11]
  Drug metabolism: Metabolite_Notdetected
[12]
  Drug metabolism: Metabolite_Notdetected
[13]
  Drug metabolism: Metabolite_Notdetected
[14]
  Drug metabolism: Metabolite_Notdetected
[15]
  Drug metabolism: Metabolite_Notdetected
[16]
  Drug metabolism: Metabolite_Notdetected
[17]
  Drug metabolism: Metabolite_Notdetected
[18]
  Drug metabolism: Metabolite_Notdetected
[19]
  Drug metabolism: Metabolite_Notdetected
[20]
  Drug metabolism: Metabolite_Notdetected
[21]
  Drug metabolism: Metabolite_Notdetected
[22]
  Drug metabolism: Metabolite_Notdetected
[23]
  Drug metabolism: Metabolite_Notdetected
[24]
  Drug metabolism: Metabolite_Notdetected
[25]
  Drug metabolism: Metabolite_Notdetected
[26]
  Drug metabolism: Metabolite_Detected
[27]
  Drug metabolism: Metabolite_Detected
[28]
  fold change (FC): 3.5
[29]
  Drug metabolism: Metabolite_Notdetected
[30]
  Drug metabolism: Metabolite_Detected
[31]
  Drug metabolism: Metabolite_Notdetected
Escherichia coli
  Activity: Active
Bacillus subtilis
  Activity: Dose-Dependent Effect
[32]
  Drug metabolism: Metabolite_Detected
[33]
  Drug metabolism: Metabolite_Detected
[34]
  Drug metabolism: Metabolite_Detected
[35]
  fold change (FC): 4.1
[36]
  Drug uptake: Active
[37]
  Drug uptake: Active
[38]
  Drug uptake: Active
[39]
  Drug uptake: Not Active
[40]
  Drug uptake: Not Active
[41]
  Drug uptake: Not Active
[42]
  Drug uptake: Not Active
[43]
  fold change (FC): 4
[44]
  fold change (FC): 4.5

## CCN(CC)c1ccc2c(c1)Oc1cc(OC(=O)OCc3cc(C)cc(COC(=O)c4cn(CC)c5cc(N6CCNCC6)c(F)cc5c4=O)c3OCc3ccccc3)ccc1C21OC(=O)c2ccccc21 (centres undefined)
[1]
  Drug metabolism: Metabolite_Notdetected
[45]
  Drug metabolism: Metabolite_Notdetected
[30]
  Drug metabolism: Metabolite_Notdetected
Escherichia coli
  Activity: Active
Bacillus subtilis
  Activity: Dose-Dependent Effect
[33]
  Drug metabolism: Metabolite_Notdetected
[36]
  Drug uptake: Not Active

## CCn1cc(C(=O)O)c(=O)c2cc(F)c(N3CCNCC3)cc21
Escherichia coli
  Activity: Active

From ChEMBL document CHEMBL5370618, “Hypoxia-Directed and Self-Immolative Theranostic Agent: Imaging and Treatment of Cancer and Bacterial Infections” (J Med Chem, 2023)
